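Interpolation was linear, between the two tested concentrations surrounding the appropriate level; five concentrations were tested over 48 hours in 96-well plates. GI50: concentration for 50% inhibition of growth.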 Calls of active or inactive are those of the source. Cut-off read from the data, not from the text of the source: active = GI50 up to about 1.1 µM and inactive = higher.
What was measured:
Experiment in all cases: NCI tumour cell line growth inhibition, 48 h
BT-549 = system: BT-549
DU-145 = system: DU-145
HCT-116 = system: HCT-116
HOP-62 = system: HOP-62
HT-29 = system: HT-29
K562 = system: K562
MCF7 = system: MCF7
OVCAR-3 = system: OVCAR-3
OVCAR-8 = system: OVCAR-8
PC-3 = system: PC-3
SF-295 = system: SF-295
SK-MEL-2 = system: SK-MEL-2
SK-MEL-5 = system: SK-MEL-5
SN12C = system: SN12C
SR = system: SR
LOX IMVI = system: LOX IMVI
Malme-3M = system: Malme-3M
OVCAR-4 = system: OVCAR-4
SK-OV-3 = system: SK-OV-3
HOP-92 = system: HOP-92

Measured: GI50

Cc1nc2c(=O)n(C)ncc2[nH]1
inactive: BT-549 > 100 µM | DU-145 > 100 µM | HCT-116 > 100 µM | HOP-62 > 100 µM | HT-29 > 100 µM | K562 > 100 µM | MCF7 > 100 µM | OVCAR-3 > 100 µM | OVCAR-8 > 100 µM | PC-3 > 100 µM | SF-295 > 100 µM | SK-MEL-2 > 100 µM | SK-MEL-5 > 100 µM | SN12C > 100 µM | SR > 100 µM

O=[N+]([O-])/C(C(Cl)=C(Cl)Cl)=C(\N1CCCCC1)n1cncn1
inactive: BT-549 17.5 µM | DU-145 16.6 µM | HCT-116 22.2 µM | HOP-62 19.6 µM | HT-29 17.7 µM | K562 > 46 µM | LOX IMVI 15.1 µM | MCF7 14.9 µM | Malme-3M 15.9 µM | OVCAR-3 16 µM | OVCAR-4 18.6 µM | OVCAR-8 19.5 µM | PC-3 16.4 µM | SF-295 17.1 µM | SK-MEL-2 18 µM | SK-MEL-5 12.6 µM | SK-OV-3 17.6 µM | SN12C 17.5 µM | SR 3.99 µM

Oc1nc2c(c(-c3ccc(F)cc3)n1)COC/C2=C\c1ccc(F)cc1
inactive: BT-549 > 100 µM | DU-145 > 100 µM | HCT-116 > 100 µM | HOP-62 > 100 µM | HOP-92 > 100 µM | K562 > 100 µM | LOX IMVI > 100 µM | MCF7 > 100 µM | OVCAR-3 > 100 µM | OVCAR-4 > 100 µM | OVCAR-8 > 100 µM | PC-3 > 100 µM | SF-295 > 100 µM | SK-MEL-2 > 100 µM | SK-MEL-5 > 100 µM | SK-OV-3 > 100 µM | SN12C > 100 µM | SR > 100 µM

CS(=O)(=O)Nc1ccc(Nc2ccnc3ccc4[nH]ccc4c23)cc1
inactive: BT-549 19.7 µM | DU-145 9.93 µM | HCT-116 5.5 µM | HOP-62 13.9 µM | HOP-92 8.36 µM | HT-29 18.4 µM | K562 6.64 µM | LOX IMVI 9.12 µM | MCF7 4.89 µM | Malme-3M 3.88 µM | OVCAR-3 10.3 µM | OVCAR-4 7.83 µM | OVCAR-8 7.96 µM | PC-3 12.4 µM | SF-295 24.5 µM | SK-MEL-2 10.3 µM | SK-MEL-5 11.7 µM | SK-OV-3 19.5 µM | SN12C 7.96 µM

CC(=O)Nc1ccc(COC(O)CN2CCCCC2)cc1[N+](=O)[O-] (stereo not drawn)
inactive: BT-549 > 100 µM | DU-145 > 100 µM | HCT-116 > 100 µM | HOP-92 > 100 µM | HT-29 > 100 µM | K562 > 100 µM | MCF7 > 100 µM | Malme-3M > 100 µM | OVCAR-3 > 100 µM | OVCAR-4 > 100 µM | OVCAR-8 > 100 µM | PC-3 > 100 µM | SF-295 > 100 µM | SK-MEL-2 > 100 µM | SK-MEL-5 > 100 µM | SN12C > 100 µM | SR > 100 µM

CN(C(=O)OC(C)(C)C)[C@H]1CCCC[C@H]1N1CCCC1
inactive: BT-549 > 100 µM | DU-145 > 100 µM | HCT-116 > 100 µM | HOP-62 > 100 µM | HT-29 > 100 µM | K562 > 100 µM | LOX IMVI > 100 µM | MCF7 > 100 µM | Malme-3M > 100 µM | OVCAR-3 > 100 µM | OVCAR-4 > 100 µM | OVCAR-8 > 100 µM | PC-3 > 100 µM | SF-295 > 100 µM | SK-MEL-2 > 100 µM | SK-MEL-5 > 100 µM | SK-OV-3 > 100 µM | SN12C > 100 µM | SR > 100 µM

CCCC(=O)n1[nH]c(=O)n(-c2ccc(Cl)cc2)c1=O
inactive: BT-549 > 100 µM | DU-145 > 100 µM | HCT-116 > 100 µM | HOP-62 > 100 µM | HT-29 > 100 µM | K562 > 100 µM | LOX IMVI > 100 µM | MCF7 > 100 µM | Malme-3M 43.4 µM | OVCAR-3 > 100 µM | OVCAR-4 > 100 µM | OVCAR-8 > 100 µM | PC-3 > 100 µM | SF-295 > 100 µM | SK-MEL-2 > 100 µM | SK-MEL-5 > 100 µM | SK-OV-3 > 100 µM | SN12C > 100 µM | SR > 100 µM

CCOc1ccncc1[N+](=O)[O-]
inactive: BT-549 > 100 µM | DU-145 > 100 µM | HCT-116 > 100 µM | HOP-62 > 100 µM | HT-29 > 100 µM | K562 > 100 µM | LOX IMVI > 100 µM | MCF7 > 100 µM | Malme-3M > 100 µM | OVCAR-8 > 100 µM | PC-3 > 100 µM | SF-295 > 100 µM | SK-MEL-2 > 100 µM | SK-MEL-5 > 100 µM | SK-OV-3 > 100 µM | SN12C > 100 µM | SR > 100 µM

From ChEMBL document CHEMBL1201862, “PubChem BioAssay data set” (2004)
